From US8541473B2, “3-aminoxalyl-aminobenzamide derivatives and insecticidal and miticidal agents containing same as active ingredient” (Agro-Kanesho Co., Ltd., priority 2009, dated 2013)

Tests used:
Type in all cases: in vivo
[1] = tested on: larvae of Plutella xylostella; experiment: Insecticidal effect on larvae of Plutella xylostella (spray on potted Chinese cabbage); conditions: for rate of killed insects (larvae): 5 days after release of larvae, agonized larvae regarded as killed; for insecticidal effect: comparative compounds, result in words, stated against the 500 ppm result
Experimental: The seeds of Chinese cabbage were sowed in a pot and then the seedlings were raised over 3 weeks. A water-diluted emulsion prepared according to the procedures used in the foregoing drug-preparation Example 1 was sufficiently sprayed on the leaves of these potted plants using an air brush (one concentration, once repeated). After the drug-containing liquid was air-dried, the plants were kept in a thermostatic chamber maintained at 25° C. and the larvae of the insect were set free. After 5 days from the release of the larvae, the latter was examined for whether they were died or not and whether they were in agony or not and the rates of killed insects (larvae) (%) were determined, while the agonized larvae were regarded as killed ones. In this respect, the comparative compounds used in this test were compounds A and B disclosed in JP-A-2006-306771 (Patent Document 25).

[2] = tested on: female adults of Tetranychus urticae; experiment: Miticidal effect on adults of Tetranychus urticae (spray on bean leaf-disks); conditions: for rate of killed adults: 4 days after drug-spray, agonized adults regarded as killed; for insecticidal effect: comparative compounds, result in words, stated against the 50 ppm result
Experimental: A polyethylene cup having a volume of 430 ml and filled with water was covered with a cap in which a hole (diameter: about 5 mm) had been formed at the center thereof. A cut having a width of about 5 mm was made on a circular filter paper having a diameter of 6.5 cm, the strip-like portion of the filter paper, which hung down, was inserted into the cup through the hole thereof in such a manner that the portion was immersed in the water contained in the cup, and absorbent cotton was put on the filter paper so that the water in the cup was always supplied to the absorbent cotton. Then, two leaf-disks (2 cm×5 cm) prepared from the primary leaves of bean were put on the absorbent cotton and then these two leaf-disks were inoculated with 10 female adults of Tetranychus urticae. This cup was placed in a cylinder of acrylic resin having a height of 50 cm and an inner diameter of 10 cm and a water-diluted emulsion prepared according to the same procedures used in the foregoing drug-preparation Example 1 was then sprayed on each cup in an amount of 1.35 ml per cup using an air brush (one concentration, once repeated). After the agricultural chemical was sprayed, the cups were kept in a thermostatic chamber maintained at a temperature of 25° C. After 4 days from the drug-spray, the adults were examined, under the observation by a prism binocular, for whether they were died or not and whether they were in agony or not and the rates of killed mites (adults) (%) were determined, while the agonized adults were regarded as killed ones. In this respect, the comparative compounds used in this test were compounds A and B disclosed in JP-A-2006-306771.

nymphs of Myzus persicae = experiment: Effect of killing larvae of Myzus persicae (leaf piece immersion); conditions: for rate of killed nymphs: 7th day after treatment, agonized nymphs regarded as killed; for insecticidal effect: comparative compounds, result in words, stated against the 50 ppm result
Experimental: Three each of adults of Myzus persicae were inoculated on a cut piece (having a size of 3 cm×4 cm) of the leaf of Chinese cabbage and they were made breed for 48 hours within a thermostatic chamber maintained at a temperature of 25° C. After the removal of the adults, each cut piece of the leaf was immersed in a water-diluted emulsion prepared according to the same procedures used in the foregoing Drug-Preparation Example 1 for 5 seconds, and then kept in a thermostatic chamber maintained at 25° C. On 7th day after the foregoing treatment, the nymphs were inspected for whether they were died or not and whether they were in agony or not and the rates (%) of killed nymphs of the plant lice were determined, while the agonized nymphs were regarded as killed ones. In this respect, the comparative compounds used in this test were compounds A and B disclosed in JP-A-2006-306771.

SMILES: Cc1cc(C(F)(C(F)(F)F)C(F)(F)F)ccc1NC(=O)c1cccc(NC(=O)C(=O)N(C)C)c1 [Compound 1-53]
- rate of killed insects (larvae) ([1]; 50 ppm): 100%

SMILES: CCN(C)C(=O)C(=O)Nc1cccc(C(=O)Nc2c(Br)cc(C(F)(C(F)(F)F)C(F)(F)F)cc2C(C)C)c1 [Compound 1-74]
- rate of killed adults ([2]; 50 ppm): 100%

SMILES: CCc1cc(C(F)(F)C(F)(F)C(F)(F)F)cc(C)c1NC(=O)c1cccc(NC(=O)C(=O)N(C)C(C)(C)C)c1 [Compound 2-2]
- rate of killed nymphs (nymphs of Myzus persicae; 12.5 ppm): 100%

SMILES: Cc1cc(C(F)(C(F)(F)F)C(F)(F)F)cc(C)c1NC(=O)c1cccc(NC(=O)C(N)=O)c1 [Compound 1-1]
- rate of killed insects (larvae) ([1]; 500 ppm): 100%

SMILES: CCc1cc(C(F)(C(F)(F)F)C(F)(F)F)cc(C)c1NC(=O)c1cccc(NC(=O)C(=O)N(C)CC(F)F)c1 [Compound 1-100]
- rate of killed adults ([2]; 12.5 ppm): 100%

SMILES: CCc1cc(C(F)(C(F)(F)F)C(F)(F)F)cc(C)c1NC(=O)c1cccc(NC(=O)C(=O)N(CC)C(C)(C)C)c1 [Compound 1-50]
- rate of killed adults ([2]; 12.5 ppm): 100%

SMILES: Cc1cc(C(F)(C(F)(F)F)C(F)(F)F)cc(C)c1NC(=O)c1cccc(NC(=O)C(=O)NCCCl)c1 [Compound 1-75]
- rate of killed insects (larvae) ([1]; 5 ppm): 100%

SMILES: Cc1cc(C(F)(C(F)(F)F)C(F)(F)F)cc(C)c1NC(=O)c1cccc(NC(=O)C(=O)N(C)C(C)(C)C)c1 [Compound 1-28]
- rate of killed insects (larvae) ([1]; 5 ppm): 100%
- rate of killed adults ([2]; 5 ppm): 100%
- rate of killed nymphs (nymphs of Myzus persicae; 50 ppm): 100%

SMILES: CCN(C)C(=O)C(=O)Nc1cccc(C(=O)Nc2c(Cl)cc(C(F)(C(F)(F)F)C(F)(F)F)cc2OC(F)(F)F)c1 [Compound 1-115]
- rate of killed nymphs (nymphs of Myzus persicae; 12.5 ppm): 100%

SMILES: Cc1cc(C(F)(C(F)(F)F)C(F)(F)F)cc(C)c1NC(=O)c1cccc(NC(=O)C(=O)NCCCCl)c1 [Compound 1-83]
- rate of killed insects (larvae) ([1]; 50 ppm): 100%

SMILES: CCc1cc(C(F)(C(F)(F)F)C(F)(F)F)cc(C)c1NC(=O)c1cccc(NC(=O)C(=O)N(C)CCCl)c1 [Compound 1-78]
- rate of killed adults ([2]; 50 ppm): 100%

SMILES: CCc1cc(C(F)(C(F)(F)F)C(F)(F)F)cc(C)c1NC(=O)c1cccc(NC(=O)C(=O)N(C)CCF)c1 [Compound 1-103, 3-(N-(2-fluoroethyl)-N-methylaminooxalylamino)-N-(2-ethyl-4-heptafluoroisopropyl-6-methyl)phenylbenzamide]
- rate of killed adults ([2]; 12.5 ppm): 100%

SMILES: CCc1cc(C(F)(C(F)(F)F)C(F)(F)F)cc(C)c1NC(=O)c1cccc(NC(=O)C(=O)N(CC)CC(F)(F)F)c1 [Compound 1-97]
- rate of killed nymphs (nymphs of Myzus persicae; 12.5 ppm): 100%

SMILES: CCc1cc(C(F)(C(F)(F)F)C(F)(F)F)cc(C)c1NC(=O)c1cccc(NC(=O)C(=O)N(C)C2CCCC2)c1 [Compound 1-47]
- rate of killed insects (larvae) ([1]; 50 ppm): 100%
- rate of killed nymphs (nymphs of Myzus persicae; 50 ppm): 100%

SMILES: COc1cc(C(F)(C(F)(F)F)C(F)(F)F)cc(Cl)c1NC(=O)c1cccc(NC(=O)C(=O)N(C)CC(F)(F)F)c1 [Compound 1-112]
- rate of killed insects (larvae) ([1]; 12.5 ppm): 100%
- rate of killed insects (larvae) ([1]; 50 ppm): 100%
- rate of killed adults ([2]; 50 ppm): 100%

SMILES: CCN(C)C(=O)C(=O)Nc1cccc(C(=O)Nc2c(C)cc(C(F)(C(F)(F)F)C(F)(F)F)cc2Br)c1 [Compound 1-62]
- rate of killed insects (larvae) ([1]; 12.5 ppm): 100%
- rate of killed insects (larvae) ([1]; 50 ppm): 100%
- rate of killed insects (larvae) ([1]; 500 ppm): 100%

SMILES: CCc1cc(C(F)(C(F)(F)F)C(F)(F)F)cc(C)c1NC(=O)c1cccc(NC(=O)C(=O)N(C)C(C)(C)CC)c1 [Compound 1-46]
- rate of killed adults ([2]; 12.5 ppm): 100%

SMILES: Cc1cc(C(F)(C(F)(F)F)C(F)(F)F)cc(C)c1NC(=O)c1cccc(NC(=O)C(=O)N(C)C(C)C)c1 [Compound 1-24]
- rate of killed nymphs (nymphs of Myzus persicae; 50 ppm): 100%

SMILES: CCc1cc(C(F)(C(F)(F)F)C(F)(F)F)cc(C)c1NC(=O)c1cccc(NC(=O)C(=O)N(C)CC(F)(F)F)c1 [Compound 1-87]
- rate of killed nymphs (nymphs of Myzus persicae; 5 ppm): 100%
- rate of killed nymphs (nymphs of Myzus persicae; 50 ppm): 100%

SMILES: CCc1cc(C(F)(F)C(F)(F)C(F)(F)F)cc(C)c1NC(=O)c1cccc(NC(=O)C(=O)N(C)CC(F)(F)F)c1 [Compound 2-3]
- rate of killed insects (larvae) ([1]; 12.5 ppm): 100%

SMILES: CCOC(=O)C(=O)Nc1cccc(C(=O)Nc2c(C)cc(C(F)(C(F)(F)F)C(F)(F)F)cc2C)c1 [compound B, reference compound]
- insecticidal effect [1]: did not show any insecticidal effect
- insecticidal effect [2]: did not show any insecticidal effect
- insecticidal effect (nymphs of Myzus persicae): did not show any insecticidal effect

SMILES: CCc1cc(C(F)(C(F)(F)F)C(F)(F)F)cc(Br)c1NC(=O)c1cccc(NC(=O)C(=O)N(C)CC(F)F)c1 [Compound 1-109]
- rate of killed insects (larvae) ([1]; 12.5 ppm): 100%
- rate of killed insects (larvae) ([1]; 50 ppm): 100%
- rate of killed insects (larvae) ([1]; 500 ppm): 100%
- rate of killed adults ([2]; 12.5 ppm): 100%
- rate of killed adults ([2]; 50 ppm): 100%
- rate of killed nymphs (nymphs of Myzus persicae; 12.5 ppm): 100%
- rate of killed nymphs (nymphs of Myzus persicae; 50 ppm): 100%

SMILES: COC(=O)C(=O)Nc1cccc(C(=O)Nc2c(C)cc(C(F)(C(F)(F)F)C(F)(F)F)cc2C)c1 [compound A, reference compound]
- insecticidal effect [1]: did not show any insecticidal effect
- insecticidal effect [2]: did not show any insecticidal effect
- insecticidal effect (nymphs of Myzus persicae): did not show any insecticidal effect

SMILES: Cc1cc(C(F)(C(F)(F)F)C(F)(F)Br)cc(C)c1NC(=O)c1cccc(NC(=O)C(=O)N(C)CC(F)(F)F)c1 (centres unmarked) [Compound 2-15]
- rate of killed nymphs (nymphs of Myzus persicae; 12.5 ppm): 100%

SMILES: CC(C)c1cc(C(F)(C(F)(F)F)C(F)(F)F)cc(Br)c1NC(=O)c1cccc(NC(=O)C(=O)N(C)CC(F)(F)F)c1 [Compound 1-96]
- rate of killed insects (larvae) ([1]; 12.5 ppm): 100%
- rate of killed adults ([2]; 12.5 ppm): 100%

SMILES: Cc1cc(C(F)(C(F)(F)F)C(F)(F)F)cc(C)c1NC(=O)c1cccc(NC(=O)C(=O)N(C)C)c1 [Compound 1-21]
- rate of killed nymphs (nymphs of Myzus persicae; 50 ppm): 100%

SMILES: Cc1cc(C(F)(C(F)(F)F)C(F)(F)F)cc(C)c1NC(=O)c1cccc(NC(=O)C(=O)NC2CCCC2)c1 [Compound 1-19]
- rate of killed insects (larvae) ([1]; 50 ppm): 100%

SMILES: Cc1cc(C(F)(C(F)(F)F)C(F)(F)F)cc(C)c1NC(=O)c1cccc(NC(=O)C(=O)N2CCCC2)c1 [Compound 1-33, 3-(pyrrolidin-1-yl-oxalylamino)-N-(2,6-dimethyl-4-heptafluoroisopropyl)phenylbenzamide]
- rate of killed nymphs (nymphs of Myzus persicae; 50 ppm): 100%

SMILES: CCc1cc(C(F)(C(F)(F)F)C(F)(F)F)cc(C)c1NC(=O)c1cccc(NC(=O)C(=O)N(C)C2CCC2)c1 [Compound 1-45]
- rate of killed insects (larvae) ([1]; 12.5 ppm): 100%

SMILES: CCc1cc(C(F)(C(F)(F)F)C(F)(F)F)cc(CC)c1NC(=O)c1cccc(NC(=O)C(=O)N(C)CC)c1 [Compound 1-57]
- rate of killed insects (larvae) ([1]; 5 ppm): 100%

SMILES: Cc1cc(C(F)(C(F)(F)F)C(F)(F)F)cc(C)c1NC(=O)c1cccc(NC(=O)C(=O)NCCBr)c1 [Compound 1-80]
- rate of killed insects (larvae) ([1]; 500 ppm): 100%

SMILES: CCc1cc(C(F)(C(F)(F)F)C(F)(F)F)cc(C)c1NC(=O)c1cccc(NC(=O)C(=O)N(C)C(C)C)c1 [Compound 1-40]
- rate of killed adults ([2]; 5 ppm): 100%

SMILES: Cc1cc(C(F)(C(F)(F)F)C(F)(F)F)cc(I)c1NC(=O)c1cccc(NC(=O)C(=O)N(C)C(C)(C)C)c1 [Compound 1-65]
- rate of killed nymphs (nymphs of Myzus persicae; 12.5 ppm): 100%

SMILES: CCN(CC)C(=O)C(=O)Nc1cccc(C(=O)Nc2c(C)cc(C(F)(C(F)(F)F)C(F)(F)F)cc2C)c1 [Compound 1-30]
- rate of killed insects (larvae) ([1]; 50 ppm): 100%
